melting point: 178 °C
Compound: CCCc1nn(C)c2c(NCc3ccc(OC)c(Cl)c3)nc(CCC(=O)O)nc12 [Example 2, 3-[7-(3-chloro-4-methoxybenzylamino)-1-methyl-3-propyl-1H-pyrazolo[4,3-d]pyrimidin-5-yl]propionic acid]

Reference: patent publication US20040023991A1, “Use of pyrazolo[4,3-d]pyrimidines” (priority 2000, published 2004)
